In US11980595B2, “Preventive or therapeutic agent and pharmaceutical composition for inflammatory diseases or bone diseases” (National University Corporation Chiba University, priority 2018, dated 2024):

Experiments:
[1] = system: social defeat stress mice; assay: Femur bone density by X-ray CT in social defeat stress mice; assay type: in vivo; details: Experimental Example 11, 10 mg/kg i.p. once, D15, compared to saline
[2] = system: RANKL; assay: Plasma RANKL and OPG/RANKL ratio in social defeat stress mice (ELISA); details: for RANKL concentration in plasma / OPG/RANKL ratio: compared to saline; for therapeutic effect (restoring abnormally high expression of RANKL to a normal value): summary of Experimental Example 11, 10 mg/kg i.p. once; for restoring abnormally high expression of RANKL to a normal value: summary of Experimental Example 6, 10 mg/kg i.p. once
[3] = system: social defeat stress mice; assay: Behavioral rating (tail suspension, forced swimming, sucrose preference tests) in social defeat stress mice; details: Experimental Example 11, 10 mg/kg i.p. once on D12, tests D12-D14, compared to saline
[4] = system: Interleukin (IL)-6; assay: Inflammatory cytokine IL-6 in plasma of DSS ulcerative colitis model mice (ELISA); assay type: in vivo; details: for IL-6 concentration in blood: 3% DSS mice, plasma day 15, compared to DSS+saline
Text: Furthermore, after the blood collection was completed, the mice in each group were euthanized by exsanguination under isoflurane anesthesia.
(§1) Interleukin (IL)-6 was quantified as the inflammatory cytokine. IL-6 was quantified by ELISA method using a commercially available kit.
Furthermore, after blood collection was completed, the mice in each group were euthanized by exsanguination under isoflurane anesthesia.
as §1

[5] = system: NMDA receptors; details: S-ketamine compared to R-ketamine; cited from earlier work
[6] = system: DSS-treated mice, the ulcerative colitis animal model; assay: Disease condition score in DSS ulcerative colitis model mice; details: for disease condition score: 3% DSS mice, scored day 7, 10, 12, 14
[7] = system: DSS-treated mice, the ulcerative colitis animal model; assay: Colonic inflammation score in DSS ulcerative colitis model mice; assay type: in vivo; details: 3% DSS mice, 10 mg/kg i.p. once a day for 14 days, day 15
Protocol: The mice from each group that had been euthanized were resected from cecum to anus, and a length from directly below the cecum to the anus was measured. Subsequently, the lumen of the colon was washed with saline, and after washing, an incision was made in the longitudinal direction, and a colonic inflammation score was determined according to the following evaluation criteria.
The mice from each group that had been euthanized were resected from the cecum to the anus, and the length from directly below the cecum to the anus was measured.

[8] = system: ovariectomized mice; assay: Femur bone density by X-ray CT in ovariectomized mice (osteoporosis model); assay type: in vivo; details: Experimental Example 13, 10 mg/kg i.p. Monday and Thursday, 6 weeks after surgery, compared to saline
Text: The effect of R-ketamine was examined using ovariectomized mice as a model animal for osteoporosis.

[9] = system: sRANKL-administered mice; assay: Femur bone density by X-ray CT in sRANKL-administered mice (osteoporosis model); details: Experimental Example 12, sRANKL (1 mg/kg) mice, 10 mg/kg i.p. 30 minutes before sRANKL and 24 and 48 hours after
[10] = Experimental Example 11, 10 mg/kg i.p. once, plasma three days after (D15)
[11] = Experimental Example 4, 10 mg/kg i.p. once a day for 14 days
[12] = Experimental Example 2, 10 mg/kg i.p. once a day for 14 days
[13] = summary of Experimental Examples 1 to 4, intraperitoneal 10 mg/kg
[14] = Experimental Example 6, 10 mg/kg i.p. once, four days after
[15] = Experimental Example 6, 10 mg/kg i.p. once, plasma four days after

SMILES	cortical bone density [1]	total bone density [1]	RANKL concentration in plasma [2, 10]	therapeutic effect (restoring abnormally high expression of RANKL to a normal value) [2]	antidepressant effect (tail suspension test, forced swimming test, sucrose preference test) [3]	IL-6 concentration in blood [4, 11]	disease condition score [6, 12]	therapeutic effect in ulcerative colitis animal model [6, 13]	OPG/RANKL ratio [2, 14]	RANKL concentration in plasma [2, 15]	restoring abnormally high expression of RANKL to a normal value [2]	further results
N[C@@]1(c2ccccc2Cl)CCC[C@@H](O)C1=O [2R,6R-HNK, 2R,6R-hydroxynorketamine]	no significant change	no significant change	a significant change to RANKL concentration in plasma was not observed	no therapeutic effect was observed	no antidepressant effect	–	–	–	–	–	–	OPG/RANKL ratio ([2]; Experimental Example 11, 10 mg/kg i.p. once, three days after (D15), 10 mg/kg): a significant change to the OPG/RANKL ratio was not observed
CN[C@]1(c2ccccc2Cl)CCCCC1=O [S-ketamine]	–	–	–	–	–	significant decrease of IL-6 concentration in blood	improvement tendency of the disease condition score was observed in the “DSS+S-ketamine” group, but it was not significant	exhibited a tendency for a therapeutic effect in the ulcerative colitis animal model, but the effect was weaker than that of R-ketamine	a significant change to the OPG/RANKL ratio was not observed	a significant change to RANKL concentration in plasma was not observed	such an effect was not observed	affinity for NMDA receptors [5]: stronger affinity for NMDA receptors than R-ketamine
Nc1ccc(O)c(C(=O)O)c1 [5-ASA, 5-aminosalicylic acid, reference compound]	–	–	–	–	–	–	–	–	–	–	–	IL-6 concentration in blood ([4]; Experimental Example 10, 50 mg/kg i.p. once a day for 14 days): a significant decrease of IL-6 concentration in blood was not observed; disease condition score ([6]; Experimental Example 8, 50 mg/kg i.p. once a day for 14 days, compared to DSS and saline): improvement tendency of the disease condition score was observed in the “DSS+5-ASA” group, but it was not significant; therapeutic effect in ulcerative colitis animal model ([6]; summary of Experimental Examples 7 to 10, intraperitoneal 50 mg/kg): extremely weak therapeutic effect
CN[C@@]1(c2ccccc2Cl)CCCCC1=O [R-ketamine]	significantly improved	significantly improved	significantly decreased	able to restore an abnormally high expression of RANKL to a normal value	significantly higher antidepressant effect	significant decrease of IL-6 concentration in blood	significant improvement of the disease condition score	exhibited a therapeutic effect	significantly increased	significantly decreased	able to restore an abnormally high expression of RANKL to a normal value	colonic inflammation score ([7]; Experimental Example 3, compared to DSS+S-ketamine group): significant improvement of the colonic inflammation score; colonic inflammation score ([7]; Experimental Example 9, compared to DSS+5-ASA (50 mg/kg) group): significant improvement of the colonic inflammation score; effect of reducing IL-6 in blood, R-ketamine compared to S-ketamine [4, 11]: higher than when administering S-ketamine; IL-6 concentration in blood ([4]; Experimental Example 10, 10 mg/kg i.p. once a day for 14 days): a significant decrease of IL-6 concentration in blood was observed; cancellous bone density [8]: tended to increase along with R-ketamine administration, but it was not statistically significant; cortical bone density [8]: significantly improved; plane bone density [8]: tended to increase along with R-ketamine administration, but it was not statistically significant; total bone density [8]: significantly improved; disease condition score ([6]; Experimental Example 8, 10 mg/kg i.p. once a day for 14 days, compared to DSS and saline): significant improvement of the disease condition score; therapeutic effect in ulcerative colitis animal model ([6]; summary of Experimental Examples 7 to 10, intraperitoneal 10 mg/kg): significant therapeutic effect; OPG/RANKL ratio ([2]; Experimental Example 11, 10 mg/kg i.p. once, three days after (D15)): significantly increased; cancellous bone density [9]: significantly increased; cortical bone density ([9]; compared to saline): significantly improved; total bone density ([9]; compared to saline): significantly improved
